Assay results from ChEMBL document CHEMBL5674860, “Optimized Dual-Glo Assay to identify co-culture-induced drug vulnerabilities in 3D CRC models” (2024).
Several values for one entry are separate records, joined by “and”; a condition that tells them apart may be missing. Equal values may be shown once.

How the values were obtained:
Type in all cases: functional, Homo sapiens
Set-up in all cases: dose or concentration left out as unconfirmed
Colon cancer organoid [1] = experiment: Optimized Dual-Glo assay to identify co-culture induced drug vulnerabilities using donated chemical probes and chemogenomics kinase set in O06 CRC organoid and F06 CAF mono and co-culture. […] Cell viability is reported both mono and co-culture models.
Colon cancer organoid [2] = experiment: Optimized Dual-Glo assay to identify co-culture induced drug vulnerabilities using donated chemical probes and chemogenomics kinase set in O14 CRC organoid and F14 CAF mono and co-culture. […] Cell viability is reported both mono and co-culture models.
Colon cancer organoid [3] = experiment: Optimized Dual-Glo assay to identify co-culture induced drug vulnerabilities using donated chemical probes and chemogenomics kinase set in O20 CRC organoid and F20 CAF mono and co-culture. […] Cell viability is reported both mono and co-culture models.
[4] = Culture type Co-Culture, Transduced with Lucferase2-P2A-EGFP lentivirus
[5] = Culture type Co-Culture, Transduced with Renilla-dsRed lentivirus
[6] = Culture type Mono-Culture, Transduced with Lucferase2-P2A-EGFP lentivirus
[7] = Culture type Mono-Culture, Transduced with Renilla-dsRed lentivirus

SMILES	Cell Viability (Colon cancer organoid [1]; [4])	Cell Viability (Colon cancer organoid [1]; [5])	Cell Viability (Colon cancer organoid [1]; [6])	Cell Viability (Colon cancer organoid [1]; [7])	Cell Viability (Colon cancer organoid [2]; [4])	Cell Viability (Colon cancer organoid [2]; [5])	Cell Viability (Colon cancer organoid [2]; [6])	Cell Viability (Colon cancer organoid [2]; [7])	Cell Viability (Colon cancer organoid [3]; [4])	Cell Viability (Colon cancer organoid [3]; [5])	Cell Viability (Colon cancer organoid [3]; [6])	Cell Viability (Colon cancer organoid [3]; [7])
CC1(C)C(N)=Nc2cc(OCCCCN3Cc4ccc(OCc5cn(CC(=O)N6CCC(CCN7CCCC7)CC6)nn5)cc4C3)c(OCC3CC3)cc21	65.2251%	114.368%	80.2418%	105.711%	75.997%	107.884%	116.341%	106.753%	70.4635%	125.652%	114.565%	111.957%
Cc1c(C(=O)O)cc(-c2ccc(C3CCNCC3)cc2)c2ccc(-c3ccc(C(F)(F)F)cc3)cc12.Cl	69.2582%	93.9723%	78.1885%	87.9203%	89.0162%	119.102%	89.8992%	99.4723%	115.549%	99.1911%	103.532%	103.975%
COc1nc2ccc([C@@](O)(c3ccccc3)C3CCN(C(C)=O)CC3)cc2c(Cl)c1Cc1ccc(-n2cccn2)cc1 [JNJ-54119936]	98.9754%	75.6952%	103.766%	113.997%	91.6435%	104.692%	80.3234%	104.355%	65.101%	118.395%	94.7218%	120.218%
CC1=C(C(=O)Nc2cc3cn[nH]c3cc2F)C(c2ccc(C(F)(F)F)cc2)CC(=O)N1 (stereo unspecified)	110.512%	74.1449%	112.137%	107.646%	79.4624%	111.728%	79.1311%	103.404%	133.522%	94.2958%	98.8555%	95.2955%
C[C@@H](NC(=O)Nc1cc2[nH]ncc2c(CO)n1)c1ccccc1 [ERKi]	117.766%	104.277%	23.2555%	96.7542%	33.887%	108.528%	11.5857%	66.9878%	50.0756%	135.339%	64.2382%	68.0141%
CNc1nc(-c2ccc3c(N)n[nH]c3c2)cc(N2C[C@@H](C(=O)NC3CCCCC3)CC[C@H]2C)n1	59.8926%	53.4401%	68.2825%	54.6916%	75.802%	81.9858%	103.482%	52.6977%	51.6899%	121.574%	29.0897%	81.2947%
CC(=O)C1=C(C)N(c2cccc(C(F)(F)F)c2)C(=O)N[C@@H]1c1ccc(C#N)nc1 [BAY-678]	128.432%	162.784%	110.704%	89.9312%	126.5%	123.101%	84.3173%	104.156%	140.099%	133.591%	110.356%	85.3396%
CC(=O)Nc1ncc(CN2CCC[C@H](Cc3cc(C)nc(C)c3)C2)s1 [JNJ-65355394]	144.109%	117.923%	95.1702%	105.247%	87.2976%	97.4656%	96.7484%	85.3088%	88.5022%	103.797%	76.2761%	119.778%
CC1=C(C)C(=O)C(C(C)(C)CC(=O)N(CCCCSC[C@H]2O[C@@H](n3cnc4c(N)ncnc43)[C@H](O)[C@@H]2O)Cc2cccc(-c3ccc(Cl)cc3)c2)=C(C)C1=O	117.447%	138.552%	64.6918%	115.82%	78.0162%	155.416%	78.4613%	102.407%	99.381%	114.813%	107.414%	99.5191%
CCOc1cn(-c2ccc(F)cc2C)nc1C(=O)Nc1ccc(Oc2ccnc3cc(OC)c(OC)cc23)c(F)c1	87.51% and 89.4828%	84.5689% and 64.7371%	86.2071% and 96.2779%	101.871% and 88.7626%	102.771% and 90.3388%	85.9243% and 77.553%	131.662% and 123.945%	95.388% and 87.085%	230.831% and 191.214%	78.4446% and 96.4847%	106.501% and 84.8653%	96.6073% and 93.6855%
CCn1cc(-c2cccc(C(F)(F)F)c2)c2sc(C(=N)NC3CCS(=O)(=O)CC3)cc2c1=O	95.4713%	165.165%	69.4061%	200.249%	120.643%	201.969%	99.2111%	135.353%	60.6992%	124.144%	95.8372%	109.255%
CNc1cc(Oc2cc(C(=O)Nc3cc(N4CCN(C)CC4)cc(C(F)(F)F)c3)ccc2C)ncn1	72.9479%	75.3319%	138.287%	104.785%	139.066%	110.099%	182.817%	99.4408%	162.082%	75.5289%	115.09%	103.127%
COc1cc(OC)cc(-c2noc(N3CCN(C)C4(CCN(c5ccnc(C)c5)CC4)C3)n2)c1	121.179%	136.172%	96.7414%	97.7605%	84.0267%	119.648%	90.6911%	98.8129%	136.007%	146.282%	103.16%	78.5515%
